The source of these data is PMC12287757, “Exploring the inhibitory effect and mechanism of 3,4,5-trihydroxybiphenyl on α-glucosidase: an integrated experimental and computational approach” (Frontiers in Pharmacology, 2025).

Molecules are shown by their SMILES.

This test has as its target α-glucosidase. Put plainly: SPR (Biacore 8K, CM5 chip, immobilized enzyme); also p-NPG inhibition (IC50 […], Ki […], non-competitive, reversible) and CD. It counts as binding, Saccharomyces cerevisiae.

Take `Oc1cc(-c2ccccc2)cc(O)c1O` [THB, 3,4,5-Trihydroxybiphenyl]: the Kd worked out at 39.1 µM.

In general, Kd refers to a measure of binding affinity in units of concentration. Read a high Kd as a looser complex.
